# Source: patent US6635628B2, “Methods of administering camptothecin compounds for the treatment of cancer with reduced side effects” (The George Washington University, priority 1998, dated 2003)
# Entries after “also recorded” stand apart in the source; their conditions may differ. Like-named read-outs stand apart in the source and are kept apart here. Marks after values point to notes of the source that are not given here.
# How the values were obtained:
# [1] = CPT-11 metabolite formed by hepatic cytochrome P-450 3A; cited from earlier work
# [2] = tested on: isolated intestinal cells from jejunum; assay type: in vitro ADME, hamster
# Method: (§1) The other drugs were dissolved in distilled water. […] DNP-SG was made from glutathione and CDNB (1-chloro-2,4-dinitro benzene) chemically. All other reagents were of analytical grade. Adult male Golden Syrian hamsters (6-8 weeks age), whose model presents a bile acid profile similar to that observed in human (28), were used.
# (§2) Intestinal cells were isolated as previously described (28, 29). Briefly, male hamsters were anesthetized with sodium pentobarbital (Nembutol 70 mg/kg body weight). The entire intestine was removed. The intestinal lumen was washed with 37° C. Hank's solution. Sacs of the ileum (12.5 cm from cecum) and jejunum (remaining small intestine) were rinsed, as well as the intestinal sacs of the anal site of small intestine (12.5 cm from cecum) and oral site (the other small intestine). The sacs were rinsed with oxygenated buffer solution containing sodium citrate (96 mM NaCl, 1.5 mM KCl, 5.6 mM KH2PO4, 27 mM sodium citrate, pH 7.3), and incubated for 10 min in the same buffer at 37° C. The sacs were then emptied, filled with oxygenated buffer solution containing EDTA (140 mM NaCl, 16 mM Na2HPO4, 2 mM EDTA, 0.5 mM dithiothreitol, pH 7.3), incubated for 10 min at 37° C. Then each sac was placed onto a petri dish and gently vortexed for 1 min. The buffer containing intestinal cells was recovered in 50 mL of Hanks' solution, washed twice and adjusted at 10^6 cells/ml in Hanks' medium (cellular stock solution containing 0.5% bovine serum albumin, pH 7.4).
# (§3) The cellular suspension of 0.95 ml was incubated for 15 min in a 37° C. water bath with stirring. Uptake was started by the addition of 0.05 ml PBS (at pH 3 or 9) containing labeled SN-38 or CPT-11 at 37° C. At various time intervals, 100 μL, sample aliquots were diluted into 3 mL of Hank's medium at 4° C. to stop the uptake. The stop solution containing the cells was filtered through a glass microfiber filter (Glass Fiber Filter Circles G4, Fisherbrand, Pa.) under vacuum (20 psi). The cells were washed once with 5 mL of 0.5% bovine serum albumin-containing Hanks' medium (4° C.) and once with 20 mL of Hanks' solution (4° C.). The filters were placed in a vial containing 4 mL of scintillation liquid (Ultra Gold, Packard, Conn.) and the radioactivity was counted in a β scintillation counter (LS3801, Beckman, Md.).
# (§4) The effect of the metabolic inhibitor, 2,4 dinitrophenol (1 mM), was studied by adding this agent to the cells 3 min prior to either ^14C-CPT-11 or ^14C-SN-38 (2 μM). The effect of 20 mM of taurocholic acid (TCA) on the uptake of both CPT-11 and SN-38 was investigated following overnight incubation of ^14C-CPT-11 (20 μM) and ^14C-SN-38 (2 μM) in Hank's solution, at pH 7.4 and in the presence and absence of TCA. The effect of 200 μM of DNP-SG or SN-38-Glu was also studied by adding these agents to the cell preparation 7 min prior to either ^14C-CPT-11 (20 μM) and ^14C-SN-38 (2 μM).
# (§5) The initial rate of uptake of CPT-11 or SN-38 was derived from the linear regression analysis of the respective regression line obtained from the plot of the uptake as a function of time. The initial rates of uptake were plotted against the corresponding concentration. The data were fitted by least-squares nonlinear regression analysis (SigmaStat, Jandel Scientific, CA), using the equation V=(Vmax·S)/(Km+S)+Kd·S where V represents the initial rate of uptake. Vmax is the maximum rate of uptake, Km is the apparent Michaelis constant, Kd is the rate of diffusion and S is the concentration of CPT-11 or SN-38.
# [3] = tested on: ileal cells; assay type: in vitro ADME, hamster
# Method: as §1, §2, §3, §4, §5
# [4] = tested on: intestinal cells from whole small-intestine; experiment: Uptake of 14C-labeled CPT-11 and SN-38 by intestinal cells, regions combined or not distinguished (TCA, pH, bicarbonate effects); conditions: for uptake rate of the lactone compared with the carboxylate form: cells from both intestinal regions; for saturability of the uptake (predominant component): SN-38 concentrations lower than 2 μM
# Method: By adding the drugs to Hank's solution containing intestinal cells from whole small-intestine, uptake studies were performed.
# as §2, §3, §4
# The effect of physiologic pH on the initial intestinal uptake rate of CPT-11 and SN-38 was investigated following overnight incubation of ^14C-CPT-11 (20 μM) and ^14C-SN-38 (2 μM) in phosphate buffered saline at pH 6.2, 6.8, 7.4 and 8, respectively.
# as §5
# [5] = assay type: physicochemical; conditions: 1,000-molecular weight cut-off membrane
# From the text: Monomers were separated from micellar aggregates by ultrafiltration through a 1000-molecular weight cut-off membrane (YM1) as described in Materials and Methods. Values are the monomeric forms of the indicated metabolites, expressed as a percentage (%) of the concentration of the initial solution before ultrafiltration. Comparison between TCA and control was estimated by Mann-Whitney test. […] Abbreviations used: CPT lactone (CPT lact.); CPT carboxylate (CPT carb.); SN-38 lactone (SN lact.); and SN-38 carboxylate (SN carb.).
# [6] = cited from earlier work
# [7] = cited from earlier work; remark: listed apart in the source
# [8] = bile of two men treated by cisplatin who received CPT-11 intravenously; cited from earlier work
# [9] = bile acid micelles; cited from earlier work
# [10] = 20 μM 14C-CPT-11, 2 μM 14C-SN-38
# [11] = % of control, inhibitor 1 mM added 3 min before [14C]CPT-11 (20 μM), n=5
# [12] = % of control, inhibitor 1 mM added 3 min before [14C]SN-38 (2 μM), n=5
# [13] = % of control, inhibitor 200 μM added 7 min before [14C]CPT-11 (20 μM), n=5
# [14] = % of control, inhibitor 200 μM added 7 min before [14C]SN-38 (2 μM), n=5
smiles,measurement,setting,value
CCc1c2c(nc3ccc(OC(=O)N4CCC(NCCCCC(=O)O)CC4)cc13)-c1cc3c(c(=O)n1C2)COC(=O)C3(O)CC (stereo not drawn) [7-ethyl-10-[4-N-(5-aminopentanoic acid)-1-piperidino]carbonyloxycamptothecin],antitumor activity weaker than SN-38,[1],500 fold
CCc1c2c(nc3ccc(OC(=O)N4CCC(N5CCCCC5)CC4)cc13)-c1cc([C@@](O)(CC)C(=O)O)c(CO)c(=O)n1C2 [CPT-11 carboxylate],Km,"[2]; jejunum, fit V=(Vmax·S)/(Km+S)+Kd·S, mean, read-out: Km (apparent Michaelis constant of uptake)",51.3 µM
same,Vmax (maximum rate of uptake),"[2]; jejunum, nonlinear regression fit, mean",146.9 p mol · 10 ^6 cells^−1 · min^−1
same,Km,"[3]; ileum, fit V=(Vmax·S)/(Km+S)+Kd·S, mean, read-out: Km (apparent Michaelis constant of uptake)",50.5 µM
same,Vmax (maximum rate of uptake),"[3]; ileum, nonlinear regression fit, mean",157.3 p mol · 10 ^6 cells^−1 · min^−1
same,transport mechanism in intestinal cells,[4],actively absorbed
CCc1c2c(nc3ccc(OC(=O)N4CCC(N5CCCCC5)CC4)cc13)-c1cc3c(c(=O)n1C2)COC(=O)[C@]3(O)CC [CPT-11 lactone],effect of TCA on % monomer concentration / association to TCA micelles,[5],significantly decreased
same,transport mechanism in intestinal cells,[4],passively transported
same,uptake rate of the lactone compared with the carboxylate form,[4]; [10],more rapidly taken up; also recorded: several times greater
same,Kd lower than that of SN-38 lactone,[4]; jejunal and ileal cells,1.8-2.5 fold
same,saturability of the uptake (predominant component),[4]; jejunal and ileal cells,non-saturable
"CCc1c2c(nc3ccc(OC(=O)N4CCC(N5CCCCC5)CC4)cc13)-c1cc3c(c(=O)n1C2)COC(=O)[C@]3(O)CC.Cl [CPT-11, (4S)-4,11-diethyl-4-hydroxy-9-[(4-piperidinopiperidino)carbonyloxy]1H-pyrano [3′,4′:6,7] indolizino[1,2-b]quinoline-3,14(4 h, 12H)dione hydrochloride]",share in lactone form at pH 7.4,[6],13%
same,incidence of grade 4 diarrhea,[7]; before adoption of loperimide therapy,17%
same,incidence of grade 4 diarrhea,[7]; following adoption of an aggressive loperimide therapy,5%
same,share of the biliary content,[8],75.6-91.9%
same,initial uptake rate at acidic pH (pH 6.2 and 6.8) versus neutral or alkaline pH (pH 7.4 and 8),[4],several times greater
same,initial uptake rate in the presence of 20 mM TCA,"[4]; cells from jejunum and ileum combined, 14C-CPT-11 20 μM, 14C-SN-38 2 μM, pH 7.4, mean±SD, n=5",48.5±10.8 % of control without TCA
same,decrease of the uptake rate at a pH greater than 6.8,"[4]; pH 6.2 to 8, 20 μM 14C-CPT-11, 2 μM 14C-SN-38",around 65%
same,uptake when HEPES of the Hank's buffer was replaced by sodium bicarbonate,[4]; pH adjusted to greater than 7,decreased
"N[C@@H](CCC(=O)N[C@@H](CSc1ccc([N+](=O)[O-])cc1[N+](=O)[O-])C(=O)NCC(=O)O)C(=O)O [DNP-SG, 2,4-dinitrophenyl-S-glutathione]","initial uptake rate of CPT-11 carboxylate, jejunum",[2],103.2%
same,"initial uptake rate of CPT-11 lactone, jejunum",[2],105.4%
same,"initial uptake rate of SN-38 carboxylate, jejunum",[2],32.0* %
same,"initial uptake rate of SN-38 lactone, jejunum",[2],78.8%
same,"initial uptake rate of CPT-11 carboxylate, ileum",[3],105.8%
same,"initial uptake rate of SN-38 carboxylate, ileum",[3],28.5* %
same,effect of the added agent on the uptake rate of SN-38 lactone,[4],not significantly affected
same,effect of the added agent on the uptake of CPT-11 carboxylate,[4]; intestinal region not given,remained unchanged
same,effect of the added agent on the uptake rate of CPT-11 lactone,[4]; intestinal region not given,not significantly affected
"O=[N+]([O-])c1ccc(O)c([N+](=O)[O-])c1 [Dinitrophenol, 2,4-dinitrophenol]","initial uptake rate of CPT-11 carboxylate, jejunum",[2]; [11],22.6%
same,"initial uptake rate of CPT-11 lactone, jejunum",[2]; [11],94.1%
same,"initial uptake rate of SN-38 carboxylate, jejunum",[2]; [12],25.5%
same,"initial uptake rate of SN-38 lactone, jejunum",[2]; [12],96.1%
same,"initial uptake rate of CPT-11 carboxylate, ileum",[3]; [11],29.2%
same,"initial uptake rate of CPT-11 lactone, ileum",[3]; [11],105.5%
same,"initial uptake rate of SN-38 carboxylate, ileum",[3]; [12],30.8%
same,"initial uptake rate of SN-38 lactone, ileum",[3]; [12],134.9%
same,effect of the added agent on the uptake rate of CPT-11 lactone,[4]; intestinal region not given,not significantly affected
same,effect of the added agent on the uptake rate of SN-38 lactone,[4]; intestinal region not given,not significantly affected
"CCc1c2c(nc3ccc(O[C@@H]4O[C@H](C(=O)O)[C@@H](O)[C@H](O)[C@H]4O)cc13)-c1cc3c(c(=O)n1C2)COC(=O)[C@]3(O)CC [SN38-Glu, SN-38 β-glucuronide]","initial uptake rate of CPT-11 carboxylate, jejunum",[2]; [13],108.9%
same,"initial uptake rate of CPT-11 lactone, jejunum",[2]; [13],88.9%
same,"initial uptake rate of SN-38 carboxylate, jejunum",[2]; [14],40.1* %
same,"initial uptake rate of SN-38 lactone, jejunum",[2]; [14],54.3%
same,"initial uptake rate of CPT-11 carboxylate, ileum",[3]; [13],93.9%
same,"initial uptake rate of SN-38 carboxylate, ileum",[3]; [14],28.9* %
same,share of the biliary content,[8],7.3-18.9%
same,effect of the added agent on the uptake of CPT-11 carboxylate,[4]; intestinal region not given,remained unchanged
same,effect of the added agent on the uptake rate of CPT-11 lactone,[4]; intestinal region not given,not significantly affected
same,effect of the added agent on the uptake rate of SN-38 lactone,[4]; intestinal region not given,not significantly affected
CCc1c2c(nc3ccc(O)cc13)-c1cc3c(c(=O)n1C2)COC(=O)[C@]3(O)CC [SN-38 lactone],effect of TCA on % monomer concentration / association to TCA micelles,[5],significantly decreased
same,transport mechanism in intestinal cells,[4],passively transported
same,uptake rate of the lactone compared with the carboxylate form,[4]; [10],more rapidly taken up; also recorded: several times greater
same,saturability of the uptake (predominant component),[4]; jejunal and ileal cells,mostly non-saturable
CC(C)CCC[C@@H](C)[C@H]1CC[C@H]2[C@@H]3CC=C4C[C@@H](O)CC[C@]4(C)[C@H]3CC[C@]12C [cholesterol],percentage of the monomer concentration (comparison values),[9],3%
CCCCCCCC/C=C\CCCCCCCC(=O)O [oleic acid],percentage of the monomer concentration (comparison values),[9],2.3%
